Assay results published in patent US7250410B2, “Cyclic nucleotide phosphodiesterase inhibitors, preparation and uses thereof” (Via Pharmaceuticals, Inc., priority 2001, dated 2007).

Target: PDE4
Assay: Inhibition of PDE4, radioenzymatic phosphodiesterase assay
Assay type: biochemical, bovine
Details: Table 1, formula (III); 1 μM cyclic AMP
Protocol: A 3 g segment of bovine aortic media cut into pieces with scissors was homogenized with an ultra-turrax then a potter glass/glass homogenizer in 7 volumes by weight of buffer A containing a protease inhibitor cocktail (20 mM Tris-HCl, 0.25 M saccharose, 2 mM magnesium acetate, 1 mM dithiothreitol, 5 mM EGTA, 2000 U/ml aprotinin, 10 mg/l leupeptin and 10 mg/l soya trypsic inhibitor). The homogenizate was centrifuged at 105,000 g for 1 hour. […] The column was washed until there was no detectable absorption at 280 nm, then eluted with a linear gradient of NaCl (0–0.5 M) in buffer B. 3-ml fractions were collected and enzyme activity was determined under the conditions described hereinafter to localize the different enzymes PDE1, PDE3, PDE4 and PDE5, which were aliquoted and frozen at −80° C.
The nucleoside formed was separated from the nucleotides by anion exchange chromatography. Nucleoside radioactivity was determined by liquid scintillation counting.

Going from `COc1cc2c(cc1OC)C(c1ccc(-c3cc(C(F)(F)F)cc(C(F)(F)F)c3)cc1)=NN(C)C(=O)C2` [IIIaw, 1-{4-[3,5-bis-(trifluoromethyl)phenyl]phenyl}-7,8-dimethoxy-3-methyl-3,5-dihydro-4H-2,3-benzodiazepin-4-one] to `COc1cc2c(cc1OC)C(c1ccc(-c3ccc(C)cc3)cc1)=NN(C)C(=O)C2` [IIIas, 7,8-dimethoxy-3-methyl-1-[4-(4-methylphenyl)phenyl]-3,5-dihydro-4H-2,3-benzodiazepin-4-one], the IC50 falls from 16 µM to 2.9 µM (5.5-fold).

Compared with `CCCCCC#Cc1ccc(C2=NN(C)C(=O)Cc3cc(OC)c(OC)cc32)cc1` [IIIax, 1-[4-(heptyn-1-yl)phenyl]-7,8-dimethoxy-3-methyl-3,5-dihydro-4H-2,3-benzodiazepin-4-one], `COc1cc2c(cc1OC)C(c1ccc(-c3ccc(C(C)=O)cc3)cc1)=NN(C)C(=O)C2` [IIIal, 1-[4-(4-acetylphenyl)phenyl]-7,8-dimethoxy-3-methyl-3,5-dihydro-4H-2,3-benzodiazepin-4-one] is 3.2-fold lower in IC50: 7.8 µM for the first, 2.4 µM for the second.

Same assay, conditions: Table 1, formula (III); compound at 10 μM

In the case of `COc1cc2c(cc1OC)C(c1ccccc1)=NN(Cc1ccccc1)C(=O)C2` [IIIac, 3-benzyl-7,8-dimethoxy-1-phenyl-3,5-dihydro-4H-2,3-benzodiazepin-4-one], the “PDE4 percentage inhibition at 10 μM” value is reported as 33%.

Same assay, conditions: Table 2, formula (XXII); compound at 10 μM

Compared with `CCOc1cc2c(cc1OC)NC(=O)CN=C2c1ccccc1` [XXIIbc, 5-phenyl-7-ethoxy-8-methoxy-1,3-dihydro-2H-1,4-benzodiazepin-2-one], `COc1cc2c(cc1OC)C(c1ccccc1)=NC(C)C(=O)N2` (stereo not shown) [XXIIaq, 7,8-dimethoxy-3-methyl-5-phenyl-1,3-dihydro-2H-1,4-benzodiazepin-2-one] is higher in “PDE4 percentage inhibition at 10 μM” value: 10% for the first, 26.2% for the second.

Compared with `O=C1CN=C(c2cccc(C(F)(F)F)c2)c2cc(I)ccc2N1` [XXIIac, 7-iodo-5-[3-(trifluoromethyl)phenyl]-1,3-dihydro-2H-1,4-benzodiazepin-2-one], `COc1ccc2c(c1)C(c1cccc(C(F)(F)F)c1)=NCC(=O)N2` [XXIIae, 7-methoxy-5-[3-(trifluoromethyl)phenyl]-1,3-dihydro-2H-1,4-benzodiazepin-2-one] is lower in “PDE4 percentage inhibition at 10 μM” value: 35% for the first, 21% for the second.

Compared with `COc1cc2c(cc1OC)C(c1ccccc1)=N[C@@H](CCCCNC(C)=O)C(=O)N2` [XXIIax, (S)-N-[4-(7,8-dimethoxy-2-oxo-5-phenyl-2,3-dihydro-1H-1,4-benzodiazepin-3-yl)butyl]acetamide], `COc1cc2c(cc1OC)C(c1ccccc1)=NC(CC(C)C)C(=O)N2` (stereo not shown) [XXIIad, 7,8-dimethoxy-3-isobutyl-5-phenyl-1,3-dihydro-2H-1,4-benzodiazepin-2-one] is higher in “PDE4 percentage inhibition at 10 μM” value: 6% for the first, 14.9% for the second.

Going from `COc1cc2c(cc1OC)C(c1ccccc1)=N[C@@H](CCCCNC(=N)N)C(=O)N2.O=C(O)C(F)(F)F.O=C(O)C(F)(F)F` [XXIIay, N-[4-(7,8-dimethoxy-2-oxo-5-phenyl-2,3-dihydro-1H-1,4-benzodiazepin-3-yl)butyl]guanidinium (S)-bis trifluoroacetate] to `COc1cc2c(cc1OC)C(c1ccccc1)=NC(Cc1c[nH]cn1)C(=O)N2` (stereo not shown) [XXIIar, 7,8-dimethoxy-3-(1H-imidazol-4-ylmethyl)-5-phenyl-1,3-dihydro-2H-1,4-benzodiazepin-2-one], the “PDE4 percentage inhibition at 10 μM” value rises from 19.6% to 49.3%.

In the case of `COc1cc2c(cc1OC)C(c1ccccc1)=NC(Cc1c[nH]c3ccccc13)C(=O)N2` (stereo not shown) [XXIIas, 7,8-dimethoxy-3-(1H-indol-3-ylmethyl)-5-phenyl-1,3-dihydro-2H-1,4-benzodiazepin-2-one], the “PDE4 percentage inhibition at 10 μM” value is reported as 41.3%.

Same assay, conditions: Table 3, formula (II); 1 μM cyclic AMP

`CCN1C(=O)C(Cc2ccccc2Br)N=C(c2ccccc2)c2cc(OC)c(OC)cc21` (stereo not shown) [IIcc, 3-(2-bromobenzyl)-1-ethyl-7,8-dimethoxy-5-phenyl-1,3-dihydro-2H-1,4-benzodiazepin-2-one] and `CCN1C(=O)C(Cc2ccccc2)N=C(c2ccccc2)c2cc(OC)c(OC)cc21` (stereo not shown) [IIcq, 3-benzyl-1-ethyl-7,8-dimethoxy-5-phenyl-1,3-dihydro-2H-1,4-benzodiazepin-2-one] are within 1.5-fold of each other in IC50: 4.97 µM for the first, 7.4 µM for the second.

`COc1cc2c(cc1OC)N(C)C(=O)CN=C2c1cc2ccccc2o1` [IIag, 5-(2-benzo[b]furyl)-7,8-dimethoxy-1-methyl-1,3-dihydro-1,4-benzodiazepin-2-one] and `COc1cc2c(cc1OC)N(C)C(=O)CN=C2c1cccc(-c2ccccc2)c1` [IIay, 5-(1,1′-biphenyl-3-yl)-7,8-dimethoxy-1-methyl-1,3-dihydro-2H-1,4-benzodiazepin-2-one] are within 1.5-fold of each other in IC50: 4.8 µM for the first, 6.6 µM for the second.

Going from `CCOc1cc2c(cc1OCC)N(CC)C(=O)C(Cc1ccccc1)N=C2c1ccccc1` (stereo not shown) [IIcv, 3-benzyl-7,8-diethoxy-1-ethyl-5-phenyl-1,3-dihydro-2H-1,4-benzodiazepin-2-one] to `CCN1C(=O)C(Cc2cccc(-c3ccccc3)c2)N=C(c2ccccc2)c2cc(OC)c(OC)cc21` (stereo not shown) [IIcu, 3-(1,1′-biphenyl-3-ylmethyl)-1-ethyl-7,8-dimethoxy-5-phenyl-1,3-dihydro-2H-1,4-benzodiazepin-2-one], the IC50 rises from 3.1 µM to 4.8 µM (1.5-fold).

Going from `CCN1C(=O)C(Cc2cccc(C(N)=O)c2)N=C(c2ccccc2)c2cc(OC)c(OC)cc21` (stereo not shown) [IIcs, 3-[(1-ethyl-7,8-dimethoxy-2-oxo-5-phenyl-2,3-dihydro-1H-1,4-benzodiazepin-3-yl)methyl]benzamide] to `CCN1C(=O)C(C(O)c2cccc(Br)c2)N=C(c2ccccc2)c2cc(OC)c(OC)cc21` (stereo not shown) [IIch, 3-[(3-bromophenyl)(hydroxy)methyl]-1-ethyl-7,8-dimethoxy-5-phenyl-1,3-dihydro-2H-1,4-benzodiazepin-2-one], the IC50 rises from 1.25 µM to 9.6 µM (7.7-fold). The first is the more potent here.

First: CCN1C(=O)C(C(O)(c2ccccc2)c2ccccc2)N=C(c2ccccc2)c2cc(OC)c(OC)cc21 (stereo not shown) [IIby, 7,8-dimethoxy-3-(diphenylhydroxymethyl)-1-ethyl-5-phenyl-1,3-dihydro-2H-1,4-benzodiazepin-2-one]
Second: CCOc1cc2c(cc1OCC)N(C)C(=O)CN=C2c1ccccc1 [IIbf, 7,8-diethoxy-1-methyl-5-phenyl-1,3-dihydro-2H-1,4-benzodiazepin-2-one]
The IC50 of the first is 9.5-fold higher: 8.2 µM for the first, 0.86 µM for the second.

Same assay, conditions: Table 3, formula (II); compound at 10 μM

Compared with `COc1cc2c(cc1OC)N(C)C(=O)CN=C2c1ccc(N(C)C)cc1` [IIaj, 7,8-dimethoxy-5-(4-N,N-dimethylaminophenyl)-1-methyl-1,3-dihydro-2H-1,4-benzodiazepin-2-one], `COc1cc2c(cc1OC)N(C)C(=O)CN=C2c1ccc(F)cc1` [IIad, 7,8-dimethoxy-5-(4-fluorophenyl)-1-methyl-1,3-dihydro-2H-1,4-benzodiazepin-2-one] is higher in “PDE4 percentage inhibition at 10 μM” value: 7.9% for the first, 23% for the second.

Going from `COc1cc2c(cc1OC)N(C)C(=O)CN=C2c1ccc(C(C)=O)cc1` [IIai, 5-(4-acetylphenyl)-7,8-dimethoxy-1-methyl-1,3-dihydro-1,4-benzodiazepin-2-one] to `COc1cc2c(cc1OC)N(C)C(=O)CN=C2c1ccccc1OC` [IIam, 7,8-dimethoxy-5-(2-methoxyphenyl)-1-methyl-1,3-dihydro-1,4-benzodiazepin-2-one], the “PDE4 percentage inhibition at 10 μM” value falls from 39% to 20%.

First: C=CCC1N=C(c2ccccc2)c2cc(OC)c(OC)cc2N(CC)C1=O (stereo not shown) [IIbs, 3-allyl-1-ethyl-7,8-dimethoxy-5-phenyl-1,3-dihydro-2H-1,4-benzodiazepin-2-one]
Second: CCN1C(=O)C(CC(N)=O)N=C(c2ccccc2)c2cc(OC)c(OC)cc21 (stereo not shown) [IIcw, 2-(1-ethyl-7,8-dimethoxy-2-oxo-5-phenyl-2,3-dihydro-1H-1,4-benzodiazepin-3-yl)acetamide]
The “PDE4 percentage inhibition at 10 μM” value of the first is higher: 38.8% for the first, 9.4% for the second.

First: COc1cc2c(cc1OC)N(C)C(=O)CN=C2C#Cc1ccccc1 [IIat, 7,8-dimethoxy-1-methyl-5-(2-phenylethynyl)-1,3-dihydro-2H-1,4-benzodiazepin-2-one]
Second: CCN1C(=O)CN=C(c2cccc(C#Cc3ccccc3)c2)c2cc(OC)c(OC)cc21 [IIbw, 1-ethyl-7,8-dimethoxy-5-[3-(phenylethynyl)phenyl]-1,3-dihydro-2H-1,4-benzodiazepin-2-one]
The “PDE4 percentage inhibition at 10 μM” value of the first is lower: 3.9% for the first, 46.1% for the second.

Compared with `COc1cc2c(cc1OC)N(Cc1ccccc1)C(=O)CN=C2c1ccccc1` [IIbc, 1-benzyl-7,8-dimethoxy-5-phenyl-1,3-dihydro-2H-1,4-benzodiazepin-2-one], `CCN1C(=O)C(Cc2cccc(CN)c2)N=C(c2ccccc2)c2cc(OC)c(OC)cc21` (stereo not shown) [IIct, 3-[3-(aminomethyl)benzyl]-1-ethyl-7,8-dimethoxy-5-phenyl-1,3-dihydro-2H-1,4-benzodiazepin-2-one] is lower in “PDE4 percentage inhibition at 10 μM” value: 27.2% for the first, 18% for the second.

`CCN1C(=O)C(C(Cc2ccc(Br)cc2)c2ccc(Br)cc2)N=C(c2ccccc2)c2cc(OC)c(OC)cc21` (stereo not shown) [IIde, 3-[1,2-bis(4-bromophenyl)ethyl]-1-ethyl-7,8-dimethoxy-5-phenyl-1,3-dihydro-2H-1,4-benzodiazepin-2-one] was tested, and the “PDE4 percentage inhibition at 10 μM” value was 0%.

Same assay, conditions: Table 3, formula (II); compound at 10 μM; 10 µM

In the case of `CCN1C(=O)C(Cc2ccc(Cl)cc2)N=C(c2ccccc2)c2cc(OC)c(OC)cc21` (stereo not shown) [IIcn, 3-(4-chlorobenzyl)-1-ethyl-7,8-dimethoxy-5-phenyl-1,3-dihydro-2H-1,4-benzodiazepin-2-one], the “PDE4 percentage inhibition at 10 μM” value is reported as 45%.
`CCN1C(=O)C(Cc2ccc(Cl)cc2)N=C(c2ccccc2)c2cc(OC)c(OC)cc21` (stereo not shown) [IIbq, 3-(4-chlorobenzyl)-1-ethyl-7,8-dimethoxy-5-phenyl-1,3-dihydro-2H-1,4-benzodiazepin-2-one] was tested, and the “PDE4 percentage inhibition at 10 μM” value was 33.8%.
